Experimental data taken from patent publication US20250011368A1, “DLL3 TARGETING PEPTIDES AND CONSTRUCTS THEREOF” (MARIANA ONCOLOGY INC., priority 2023, published 2025).
Bridge positions count the residues as written; N and C are the ends. Square brackets hold non-standard residues; d marks the D form. Peptide text beside a SMILES is read from it. * marks the point of attachment. ξ: configuration not given here. DOTA = O=C(O)CN1CCN(CC(=O)O)CCN(CC(=O)*)CCN(CC(=O)O)CC1; Trp(5-F) = N[C@@H](Cc1c[nH]c2ccc(F)cc12)C(=O)O; Trp(7-aza) = N[C@@H](Cc1c[nH]c2ncccc12)C(=O)O; Phe(4-F) = N[C@@H](Cc1ccc(F)cc1)C(=O)O; Gly(4-THP) = N[C@H](C(=O)O)C1CCOCC1; Nva(3-Et) = CCC(CC)[C@H](N)C(=O)O; Cha = N[C@@H](CC1CCCCC1)C(=O)O; Cba = N[C@@H](CC1CCC1)C(=O)O; Nle = CCCC[C@H](N)C(=O)O; Aze = O=C(O)[C@@H]1CCN1; ξK = NCCCCC(N)C(=O)O

Target: T1, human DLL3 (Homo sapiens, UniProt Q9NYJ7)
T1 sequence (Q9NYJ7 27-618): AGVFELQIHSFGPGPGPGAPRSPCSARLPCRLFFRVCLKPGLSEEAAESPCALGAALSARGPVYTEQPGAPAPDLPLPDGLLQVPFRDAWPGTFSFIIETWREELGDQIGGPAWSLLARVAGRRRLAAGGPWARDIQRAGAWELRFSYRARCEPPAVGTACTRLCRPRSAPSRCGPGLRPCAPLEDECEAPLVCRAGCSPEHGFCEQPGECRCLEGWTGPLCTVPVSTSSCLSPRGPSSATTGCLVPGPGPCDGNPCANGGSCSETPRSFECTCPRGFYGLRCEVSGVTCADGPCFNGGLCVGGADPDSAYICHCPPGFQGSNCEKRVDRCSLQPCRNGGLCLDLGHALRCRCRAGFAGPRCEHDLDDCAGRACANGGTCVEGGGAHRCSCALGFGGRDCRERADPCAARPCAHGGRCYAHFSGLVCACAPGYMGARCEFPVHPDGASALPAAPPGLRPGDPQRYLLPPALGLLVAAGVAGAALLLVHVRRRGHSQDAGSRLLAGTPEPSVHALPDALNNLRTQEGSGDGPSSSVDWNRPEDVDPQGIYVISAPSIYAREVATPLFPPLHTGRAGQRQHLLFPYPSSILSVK
Assay: Affinity determination by Surface Plasmon Resonance (SPR)
Assay type: binding
Details: 25° C., biotinylated human DLL3 immobilized on streptavidin sensor chip, 1:1 binding model; read-out: SPR KD
Method: SPR studies were performed on the compounds disclosed herein using the following protocol.
Biotinylated target ligand human DLL3 was immobilized on a streptavidin sensor chip. A reference surface was set up for nonspecific binding and refractive index changes. For analysis of the kinetics of interactions, varying concentrations of samples were injected at a flow rate of 100 μL/minute using running buffer containing 20 mM phosphate buffer with 2.7 mM KCl, 137 mM NaCl, 0.05% Surfactant P20 and 2% DMSO. Sensorgram curves were fitted with 1:1 binding model, and affinity and kinetic parameters were obtained using Biacore Insight evaluation 4.0. software.

| Compound | Kd [nM] |
| --- | --- |
| CCC(CC)[C@H](NC(=O)[C@@H](NC(=O)[C@H](Cc1c[nH]c2ccc(F)cc12)NC(C)=O)[C@@H](C)O)C(=O)N[C@H]1CSSC[C@@H](C(=O)N[C@@H](Cc2c[nH]c3ncccc23)C(=O)N2CC[C@H]2C(=O)NC(CCCCNC(=O)CN2CCN(CC(=O)O)CCN(CC(=O)O)CCN(CC(=O)O)CC2)C(N)=O)NC(=O)[C@H](CC(=O)O)NC(=O)[C@H](Cc2cnc[nH]2)NC(=O)[C@H](Cc2ccc(F)cc2)NC(=O)[C@H](CC(N)=O)NC(=O)[C@H](CC(N)=O)NC1=O (stereo partly drawn) [compound 122, Ac-(5Fluoro-W)-T-(Env)-C(3)-N-N-(4Fluoro-F)-H-D-C(3)-(7Aza-W)-(Aze)-[D-Lys(DOTA)]-NH2] (Ac-[Trp(5-F)]T[Nva(3-Et)]CNN[Phe(4-F)]HDC[Trp(7-aza)][Aze][ξK](DOTA)-NH2; disulfide 4-10) | 1 to 10 |
| CC(=O)N[C@@H](Cc1c[nH]c2ccc(F)cc12)C(=O)N[C@H](C(=O)N[C@H](C(=O)N[C@H]1CSSC[C@@H](C(=O)N[C@@H](Cc2c[nH]c3ncccc23)C(=O)N2CC[C@H]2C(=O)NC(CCCCNC(=O)CN2CCN(CC(=O)O)CCN(CC(=O)O)CCN(CC(=O)O)CC2)C(N)=O)NC(=O)[C@H](CC(=O)O)NC(=O)[C@H](Cc2cnc[nH]2)NC(=O)[C@H](Cc2ccc(F)cc2)NC(=O)[C@H](CC(N)=O)NC(=O)[C@H](CC(N)=O)NC1=O)C1CCOCC1)[C@@H](C)O (stereo partly drawn) [compound 123, Ac-(5Fluoro-W)-T-(THPG)-C(3)-N-N-(4Fluoro-F)-H-D-C(3)-(7Aza-W)-(Aze)-[D-Lys(DOTA)]-NH2] (Ac-[Trp(5-F)]T[Gly(4-THP)]CNN[Phe(4-F)]HDC[Trp(7-aza)][Aze][ξK](DOTA)-NH2; disulfide 4-10) | 10 to 100 |
| CC(=O)N[C@@H](Cc1c[nH]c2ccc(F)cc12)C(=O)N[C@H](C(=O)N[C@@H](CC1CCC1)C(=O)N[C@H]1CSSC[C@@H](C(=O)N[C@@H](Cc2c[nH]c3ncccc23)C(=O)N2CC[C@H]2C(=O)N[C@H](CCCCNC(=O)CN2CCN(CC(=O)O)CCN(CC(=O)O)CCN(CC(=O)O)CC2)C(N)=O)NC(=O)[C@H](CC(=O)O)NC(=O)[C@H](Cc2cnc[nH]2)NC(=O)[C@H](Cc2ccc(F)cc2)NC(=O)[C@H](CC(N)=O)NC(=O)[C@H](CC(N)=O)NC1=O)[C@@H](C)O [compound 126, Ac-(5Fluoro-W)-T-(CBA)-C(3)-N-N-(4Fluoro-F)-H-D-C(3)-(7Aza-W)-(Aze)-[D-Lys(DOTA)]-NH2] (Ac-[Trp(5-F)]T[Cba]CNN[Phe(4-F)]HDC[Trp(7-aza)][Aze][dK](DOTA)-NH2; disulfide 4-10) | 10 to 100 |

Other lines, results leading:

| Kd [nM] | Compound |
| --- | --- |
| 10 to 100 | CCCC[C@H](NC(=O)[C@@H](NC(=O)[C@H](Cc1c[nH]c2ccc(F)cc12)NC(C)=O)[C@@H](C)O)C(=O)N[C@H]1CSSC[C@@H](C(=O)N[C@@H](Cc2c[nH]c3ncccc23)C(=O)N2CC[C@H]2C(=O)NC(CCCCNC(=O)CN2CCN(CC(=O)O)CCN(CC(=O)O)CCN(CC(=O)O)CC2)C(N)=O)NC(=O)[C@H](CC(=O)O)NC(=O)[C@H](Cc2cnc[nH]2)NC(=O)[C@H](Cc2ccc(F)cc2)NC(=O)[C@H](CC(N)=O)NC(=O)[C@H](CC(N)=O)NC1=O (stereo partly drawn) [compound 124, Ac-(5Fluoro-W)-T-(Nle)-C(3)-N-N-(4Fluoro-F)-H-D-C(3)-(7Aza-W)-(Aze)-[D-Lys(DOTA)]-NH2] (Ac-[Trp(5-F)]T[Nle]CNN[Phe(4-F)]HDC[Trp(7-aza)][Aze][ξK](DOTA)-NH2; disulfide 4-10) |
| 1 to 10 | CC(=O)N[C@@H](Cc1c[nH]c2ccc(F)cc12)C(=O)N[C@H](C(=O)N[C@@H](CC1CCCCC1)C(=O)N[C@H]1CSSC[C@@H](C(=O)N[C@@H](Cc2c[nH]c3ncccc23)C(=O)N2CC[C@H]2C(=O)N[C@H](CCCCNC(=O)CN2CCN(CC(=O)O)CCN(CC(=O)O)CCN(CC(=O)O)CC2)C(N)=O)NC(=O)[C@H](CC(=O)O)NC(=O)[C@H](Cc2cnc[nH]2)NC(=O)[C@H](Cc2ccc(F)cc2)NC(=O)[C@H](CC(N)=O)NC(=O)[C@H](CC(N)=O)NC1=O)[C@@H](C)O [compound 125, Ac-(5Fluoro-W)-T-(CHA)-C(3)-N-N-(4Fluoro-F)-H-D-C(3)-(7Aza-W)-(Aze)-[D-Lys(DOTA)]-NH2] (Ac-[Trp(5-F)]T[Cha]CNN[Phe(4-F)]HDC[Trp(7-aza)][Aze][dK](DOTA)-NH2; disulfide 4-10) |
